Test results: patent US12416052B2, “Capturing, concentrating, and detecting microbes in a sample using magnetic ionic liquids and recombinase polymerase amplification” (priority 2019, dated 2025)

Tests used:
[1] = Density of MIL; format: physicochemical
[2] = test system: Salmonella enterica subsp. enterica ser. Typhimurium ATCC 14028; format: cell-based; conditions: Example 2; 2×T, 1×NaCl back-extraction medium
Experimental: A universal schematic for MIL-based cell extraction is depicted in FIG. 7B. A 1 mL volume of diluted cell suspension was added to a flat-bottomed 4-mL screw cap glass vial. Fifteen microliters of either the Ni(II) or Dy(III) MIL was added and dispersed into microdroplets by vortex agitation for 30 s. The aqueous phase was decanted following dispersive extraction, and the MIL was subjected to a brief wash step using 1 mL of nuclease-free water (Integrated DNA Technologies, Coralville, IA, USA) to ensure adequate removal of loosely or incidentally bound cells. After washing, release of viable cells from the MIL extraction phase was carried out using a “back-extraction” step accomplished through addition of 1 mL of an ionically-rich nutritive medium comprised of 20 g L^−1 tryptone and 10 g L^−1 NaCl, followed by a 120 s vortex step. After back-extraction, aliquots of the cell-enriched back-extraction medium were enumerated using the track dilution method using 100×100 mm square, gridded TSA, BSA, CA or VRBGA plates.
Following back-extraction, aliquots of the cell-enriched back-extraction medium were serially diluted in 0.1% peptone water and a 10 μL aliquot of each dilution was applied to a separate lane on square plates containing an appropriate agar medium. The plates were then tilted at an approximately 80° angle for 15 min to allow the droplets to travel toward the opposite end of the plate. The plates were incubated for 24 h at 37° C. (TSA, VRBGA), for 48 h at 37° C. (BSA) or for 24 h at 37° C. (CA). Colonies were counted and colony forming units (CFU) were determined. The enrichment factor (EF) for MIL-based extraction was calculated using Equation 1, where CMIL represents the concentration of bacteria in suspension following extraction using the MIL and CS is the initial concentration of bacteria in the sample.
Because culture-based methods depend on sample preparation steps that preserve bacterial viability, potential deleterious cytotoxic effects imparted by MIL extractants must be considered. To begin our further study of MIL-bacterial interactions, we selected S. typhimurium ATCC 14028 as a model gram-negative pathogen and the Ni(II) MIL as extractant.

[3] = test system: Salmonella typhimurium; conditions: thermal (120° C.-150° C.) disintegration; cited from earlier work
[4] = test system: E. coli; conditions: thermal (120° C.-150° C.) disintegration; cited from earlier work
[5] = test system: S. typhimurium ATCC 14028; assay: Exposure of cells and plating on non-selective (TSA) and selective (BSA) agar (viability, injury, toxicity); format: cell-based, Salmonella enterica
Experimental: To examine whether exposure time to the Ni(II) MIL affected cell viability, MIL-based whole-cell extraction was performed using the Ni(II) MIL, and cell-enriched back-extraction media were enumerated at 0, 5, 10 and 15 min on both TSA and BSA. To evaluate toxicity of the [EMIM^+][SCN^−] IL, one milliliter of diluted S. typhimurium ATCC 14028 cell suspension was added to a 4-mL screw cap glass vial. A 5% (vol/vol) or 50% (vol/vol) aqueous solution of 1-ethyl-3-methylimidazolium thiocyanate (“[EMIM^+][SCN^−]”) (IoLiTec, Tuscaloosa, AL, USA) was added and mixed by vortexing for 30 s. Aliquots were enumerated at 0, 5, 10 and 15 min using TSA and BSA.
One milliliter of diluted S. typhimurium ATCC 14028 cell suspension was added to a 4-mL screw cap glass vial. Fifteen microliters of either the Dy(III) MIL or 2-10 μL of 100 mM DyCh solution or 10 mg of the ammonium tetra(hexafluoroaceto)dysprosium salt (15) ([NH4^+][Dy(hfacac)4^−]) (“Dy(III) ammonium salt”) was added and dispersed by vortex agitation for 30 s. Aliquots of the Dy(III) MIL- or Dy(III) ammonium salt-exposed cell suspension were enumerated using square TSA or BSA plates (BD).
Because culture-based methods depend on sample preparation steps that preserve bacterial viability, potential deleterious cytotoxic effects imparted by MIL extractants must be considered. To begin our further study of MIL-bacterial interactions, we selected S. typhimurium ATCC 14028 as a model gram-negative pathogen and the Ni(II) MIL as extractant. Briefly, a 1 mL aliquot of TSB was inoculated with 1×10^5 CFU mL^−1 of bacteria and spiked with 15 μL of the Ni(II) MIL, and the general schematic for MIL-based extraction and recovery followed as shown in FIG. 7B. After extraction, 10 μL aliquots of the back-extraction solution were enumerated at 0, 5, 10 and 15 min using TSA and BSA. Average CFU counts were compared to a standard that was not exposed to the Ni(II) MIL. […] To better understand the data in FIG. 8, statistical analyses of Ni(II) MIL capture precision and CFU count variation as a function of MIL exposure time were performed. Variation in MIL capture may stem from inherent randomness of MIL dispersion and coalescence behaviors.
The effects of 5% or 50% (vol/vol) aqueous solutions of the [EMIM^+][SCN^−] IL on the viability of the cells were also evaluated. Average CFU counts were compared to a standard not exposed to [EMIM^+][SCN^−]. In our hands, when S. typhimurium was exposed to 50% (vol/vol) solutions of [EMIM^+][SCN^−], no recovery was observed on either TSA or BSA after 5 min of exposure.
To gain further insight into this phenomenon, the effect of free elemental dysprosium was evaluated by subjecting the cells to 0.1 mM and 1.0 mM solutions of DyCl3. The cells were exposed to the metal salt solutions for 30 s and subsequently plated on selective and non-selective media.
While the metal did show cytotoxicity, it cannot be completely responsible for the Dy(III) MIL's effect on the cells, as no flocculation was seen and growth was still observed. Since both the Ni(II) and the Dy(III) MILs contain identical cations ([P6,6,6,14^+]), the role of the anion structure was evaluated. The anion of the Dy(III) MIL contains one additional hexafluoroacetylacetonate ligand than the Ni(II) MIL (FIG. 7), making the coordination geometry of the two complexes different. To test the effects of the anion structure, cells were subjected to 10 mg of the Dy(III) ammonium salt. After a 30 second vortex, similar flocculation was observed as when the cells were exposed to the native Dy(III) MIL.

[6] = test system: Salmonella typhimurium; conditions: plated to a selective agar; cited from earlier work

Molecule: CCCCCCCCCCCCCC[P+](CCCCCC)(CCCCCC)CCCCCC.O=C([CH-]C(=O)C(F)(F)F)C(F)(F)F.O=C([CH-]C(=O)C(F)(F)F)C(F)(F)F.O=C([CH-]C(=O)C(F)(F)F)C(F)(F)F.[Co+2] [Co(II) MIL]
- density [1]: ~1.3 g/mL
- enrichment factors [2]: approximately 12

Molecule: 1-butyl-1-methylpyrrolidinium bis(trifluoromethylsulfonyl)imide [[BMPyr^+][Ntf2^−]]
- cell disruption [3]: completely disrupted
- cell disruption [4]: completely disrupted

Molecule: CCn1cc[n+](C)c1.N#C[S-] [[EMIM^+][SCN^−], 1-ethyl-3-methylimidazolium thiocyanate, reference compound]
- recovery on TSA or BSA ([5]; 50% (vol/vol) solution, after 5 min of exposure): no recovery
- recovery on TSA or BSA ([5]; exposed as originally described for IL-based extraction from foods (Mester et al., 2010)): no recovery
- inoculated S. typhimurium recovered after IL-mediated matrix lysis [6]: 34-45%

Molecule: [Cl][Dy]([Cl])[Cl] [DyCl3, reference compound]
- viable counts on TSA and BSA ([5]; 0.1 mM and 1.0 mM solutions, 30 s exposure): substantially lower counts were observed on BSA than TSA

Molecule: O=C([CH-]C(=O)C(F)(F)F)C(F)(F)F.O=C([CH-]C(=O)C(F)(F)F)C(F)(F)F.O=C([CH-]C(=O)C(F)(F)F)C(F)(F)F.O=C([CH-]C(=O)C(F)(F)F)C(F)(F)F.[Dy+3].[NH4+] [Dy(III) ammonium salt, ammonium tetra(hexafluoroaceto)dysprosium salt, reference compound]
- growth on TSA or BSA ([5]; 10 mg, 30 second vortex, 24 h incubation): no growth was seen on either TSA or BSA

Molecule: CCCCCCCCCCCCCC[P+](CCCCCC)(CCCCCC)CCCCCC.O=C([CH-]C(=O)C(F)(F)F)C(F)(F)F.O=C([CH-]C(=O)C(F)(F)F)C(F)(F)F.O=C([CH-]C(=O)C(F)(F)F)C(F)(F)F.O=C([CH-]C(=O)C(F)(F)F)C(F)(F)F.[Dy+3] [Dy(III) MIL, [P6,6,6,14^+][Dy(III) (hfacac)4^−]]
- flocculation and growth after plating ([5]; 15 μL added to cell suspension, 30 s vortex): extensive flocculation and no growth after plating
